{
  "source": "patent US12396987B2",
  "about": "“Pharmaceutical composition with excellent storage stability” (ISHIHARA SANGYO KAISHA, LTD., priority 2018, dated 2025)",
  "key": {"[1]": {"experiment": "Forced decomposition test of compound 1 (heat, acid, base, oxidation, light; HPLC-PDA)", "assay_type": "physicochemical", "method": "A forced decomposition test of the compound 1 was performed under stress conditions of heat, acid, base, oxidation and light. A compound 1-containing solution was stored under the conditions shown in Table 4 below, and then the concentrations of the compound 1 and the decomposition products in the solution were measured using a high performance liquid chromatography-photodiode array detector (HPLC-PDA system). An incubator was used for heating, and a light resistance tester was used for irradiation with pseudo-sunlight in a photodecomposition test. The content of the compound 1 in the compound 1-containing solution produced was measured by the HPLC-PDA system, and the value thereof was regarded as the initial content.\nThe content of D1 and D3 in the solution was represented by the proportion (% by area) of the peak area of each compound to the total peak area of HPLC analysis of the composition obtained after the decomposition test. Furthermore, the residual rate (% by mass) of the compound 1 was calculated by dividing the content after storage by the initial content using the absolute calibration method.\n(§1) Measurement of the residual rate of the compound 1 and the content of the decomposition products in the following Examples 3 to 9 was performed under the following conditions: • Analyzer: HPLC-PDA system: CBM-20Avp system controller, SIC-20ADvp autosampler, LC-20ADvp feed pump, DGU-20A degasser, CTO-20Avp column oven, SPD-M10Avp photodiode array detector, manufactured by Shimadzu Corporation • Column: Kinetex® Biphenyl […] (50×4.6 mm), manufactured by Shimadzu Corporation\nA compound 1 was metered, and Milli-Q water was added so that the compound 1 could be solubilized, thus obtaining an aqueous solution of the compound 1 (250 μM) so that the concentration of the compound 1 became 250 μM.\nThe aqueous solution of the compound 1 thus obtained (250 μM) was heated at 60° C., followed by measurement using the HPLC-PDA system.\nThe aqueous solution of the compound 1 obtained in Example 3 (250 μM) was heated under acid (0.1N HCl) conditions, followed by measurement of the decomposition products using the HPLC-PDA system. […] Addition of an acid decreased the production of D1 and promoted the production of D3.\nThe aqueous solution of the compound 1 obtained in Example 3 (250 μM) was heated under base (0.1N NaOH) conditions, followed by measurement of the decomposition products using the HPLC-PDA system. […] Addition of a base promoted the production of D1. Other peaks (0.11% by area) were observed.\nThe aqueous solution of the compound 1 obtained in Example 3 (250 μM) was stored under conditions of ordinary temperature and hydrogen peroxide (3 v/v %), followed by measurement of the decomposition products using the HPLC-PDA system.\nThe aqueous solution of the compound 1 obtained in Example 3 (250 μM) was irradiated with pseudo-sunlight (250 W/m^2, 2 hours), followed by measurement of the decomposition products using the HPLC-PDA system. […] Therefore, it was confirmed that the aqueous solution of the compound 1 was photostable."}, "[2]": {"experiment": "Pharmacokinetic evaluation of hydrogelated liquid composition, subcutaneous administration to rats", "assay_type": "in vivo, SD male rats", "settings": "5 mg/kg", "method": "A compound 1 (3.5 mg), Kolliphor (registered trademark) P188 (200 mg), Kolliphor (registered trademark) P407 (150 mg) and purified water (1.0 mL) were mixed using a vortex mixer to obtain a liquid composition. Then, the above liquid composition was stored at 4° C. overnight to obtain a hydrogel.\nTo evaluate the sustained-release ability of the hydrogelated liquid composition prepared in the above Example 11(a), the drug concentration in blood was measured over time after subcutaneous administration of the hydrogel or a compound 1 bulk powder to rats. Specifically, the hydrogel or the compound 1 bulk powder, at a dose of 5 mg/kg as an amount of the compound 1, was singly subcutaneously administered to SD male rats. After subcutaneous administration, blood was collected over time from the tail vein, and the blood was transferred into a micro test tube treated with heparin, and immediately cooled in ice. After cooling in ice, the blood was immediately centrifuged at 4° C. and 10,000 g for 10 minutes.\nIn Table 10, pharmacokinetic parameter was expressed as mean±standard error (n=3 to 6)."}, "phospholipase A2": {"tested_on": "phospholipase A2", "settings": "known from Patent Document 1; cited from earlier work"}, "[3]": {"experiment": "Inhibition of decomposition of compound 1-containing liquid composition with antioxidant added (60° C., 48 hours)", "assay_type": "physicochemical", "settings": "compound 1 250 μM, Tween 80 1.0 v/v %, antioxidant 250 μM, 60° C. for 48 hours (FIG. 6)", "method": "In this test, an additive (antioxidant) that traps reactive oxygen species (ROS) was added to investigate the usefulness in the aqueous solution of the compound 1 for inhibition of decomposition under thermal conditions. A compound 1, Tween 80 and an antioxidant was metered, and Milli-Q water was added so that the concentration of the compound 1 and Tween 80 became 250 μM and 1.0 v/v %, respectively. Subsequently, four antioxidants were added so that each of the concentration thereof became 250 μM to obtain a compound 1-containing liquid composition with an antioxidant added. The content of D1 after the composition was heated at 60° C. for 48 hours was evaluated."}, "[4]": {"experiment": "Solution stability of compound 1-containing liquid composition with VC added (heating to 60° C.)", "assay_type": "physicochemical", "settings": "VC 250, 500 or 2,500 μM, compound 1 250 μM, Tween 80 1.0 v/v %", "method": "as §1\nEffects of the amount of VC added on the solution stability of the compound 1 were investigated. Preparation was performed in the same manner as for the compound 1-containing liquid composition in Example 8 except that the concentration of VC was 250, 500 or 2,500 μM. The decomposition of the compound 1 and the production of D1 at the time of addition were evaluated (mean±standard error, n=3). After heating to 60° C., and the residual rate of the compound 1 and the content of D1 were evaluated over time, and the results are shown in FIG. 7. The residual rate (% by mass) of the compound 1 in the solution and the content (% by area) of D1 were calculated by the same calculation method as in Examples 3 to 8."}, "[5]": {"settings": "clinical use as additive; cited from earlier work"}, "[6]": {"settings": "Heat: 60° C., 48 h, —: Undetected"}, "[7]": {"settings": "Oxidation: 3.0% H2O2, room temperature, 48 h"}},
  "note": "Entries after “also recorded” stand apart in the source; their conditions may differ. Counter-ions that a name gives are not always drawn.",
  "data": [
    {"smiles": "CCS(=O)(=O)Nc1ncc(C(F)(F)F)cc1NC(=O)C1CCCCC1", "note": "[Compound 1, N-(2-ethylsulfonylamino-5-trifluoromethyl-3-pyridyl)cyclohexanecarboxamide-monosodium salt-monohydrate]", "values": [
      {"measurement": "Content of D3 after the forced decomposition test", "setting": "[1]; Acid: 0.1N HCl, 60° C., 48 h", "result": 16.18, "unit": "% by area"},
      {"measurement": "Other peaks (other than D1 and D3), maximum", "setting": "[1]; Acid: 0.1N HCl, 60° C., 48 h", "result": "≤ 1.36", "unit": "% by area"},
      {"measurement": "Residual rate of the compound 1 after the forced decomposition test", "setting": "[1]; Acid: 0.1N HCl, 60° C., 48 h", "result": 77.1, "unit": "% by mass"},
      {"measurement": "Content of D1 after the forced decomposition test", "setting": "[1]; Acid: 0.1N HCl, 60° C., 48 h, —: Undetected", "result": "below the detection limit"},
      {"measurement": "Content of D1 after the forced decomposition test", "setting": "[1]; Base: 0.1N NaOH, 60° C., 48 h", "result": 17.62, "unit": "% by area"},
      {"measurement": "Content of D3 after the forced decomposition test", "setting": "[1]; Base: 0.1N NaOH, 60° C., 48 h", "result": 0.50, "unit": "% by area"},
      {"measurement": "Other peaks (other than D1 and D3)", "setting": "[1]; Base: 0.1N NaOH, 60° C., 48 h", "result": 0.11, "unit": "% by area"},
      {"measurement": "Residual rate of the compound 1 after the forced decomposition test", "setting": "[1]; Base: 0.1N NaOH, 60° C., 48 h", "result": 77.3, "unit": "% by mass"},
      {"measurement": "Residual rate of the compound 1 after the forced decomposition test", "setting": "[1]; Heat: 250 μM aqueous solution, 60° C., 48 h", "result": 88.7, "unit": "% by mass"},
      {"measurement": "Other peaks (other than D1 and D3)", "setting": "[1]; Heat: 60° C., 48 h", "result": "No other peaks were detected"},
      {"measurement": "Content of D1 after the forced decomposition test", "setting": "[1]; [6]", "result": 8.08, "unit": "% by area"},
      {"measurement": "Content of D3 after the forced decomposition test", "setting": "[1]; [6]", "result": "below the detection limit"},
      {"measurement": "Residual rate of the compound 1 after the forced decomposition test", "setting": "[1]; Light: pseudo-sunlight 250 W/m^2, room temperature, 2 h", "result": 97.4, "unit": "% by mass"},
      {"measurement": "Content of D1 after the forced decomposition test", "setting": "[1]; [7]", "result": 0.30, "unit": "% by area"},
      {"measurement": "Residual rate of the compound 1 after the forced decomposition test", "setting": "[1]; [7]", "result": 75.9, "unit": "% by mass"},
      {"measurement": "Content of D3 after the forced decomposition test", "setting": "[1]; Oxidation: 3.0% H2O2, room temperature, 48 h, —: Undetected", "result": "below the detection limit"},
      {"measurement": "Peaks other than D1 and D3, maximum", "setting": "[1]; Oxidation: hydrogen peroxide 3 v/v %, ordinary temperature", "result": "≤ 1.79", "unit": "% by area"},
      {"measurement": "Photostability of the aqueous solution (decomposition products after irradiation)", "setting": "[1]; pseudo-sunlight 250 W/m^2, 2 hours", "result": "No decomposition product was detected; also recorded: photostable"},
      {"measurement": "Concentration in plasma at 12 hours after administration", "setting": "[2]", "result": "below the detection limit"}
    ]},
    {"smiles": "CCS(=O)(=O)Nc1ncc(C(F)(F)F)cc1NC(=O)C1CCCCC1", "note": "[N-(2-ethylsulfonylamino-5-trifluoromethyl-3-pyridyl)cyclohexanecarboxamide]", "values": [
      {"measurement": "Inhibitory effect on phospholipase A2", "setting": "phospholipase A2", "result": "has an inhibitory effect on phospholipase A2"}
    ]},
    {"smiles": "O=C1O[C@H]([C@@H](O)CO)C(O)=C1O", "note": "[VC, L-ascorbic acid]", "values": [
      {"measurement": "Inhibition of decomposition of compound 1 / production of D1 by added antioxidant", "setting": "[3]", "result": "remarkably inhibited the production of D1"},
      {"measurement": "Residual rate of the compound 1 over time with VC added", "setting": "[4]; 60° C. (FIG. 7A)", "result": "increased depending on the concentration of VC added"},
      {"measurement": "Content of D1 over time with VC added", "setting": "[4]; 60° C. (FIG. 7B)", "result": "decreased depending on the concentration of VC added"}
    ]},
    {"smiles": "N[C@@H](CS)C(=O)O", "note": "[cysteine, L-Cysteine]", "values": [
      {"measurement": "Inhibition of decomposition of compound 1 / production of D1 by added antioxidant", "setting": "[3]", "result": "remarkably inhibited the production of D1"},
      {"measurement": "Maximum dose during intravenous injection", "setting": "[5]", "result": 8, "unit": "mg"}
    ]}
  ]
}
